Test systems include HOP-92; SK-MEL-5; UACC-257; LOX IMVI; SK-MEL-2; HCT-116; OVCAR-3; SW-620; HL-60; EKVX; OVCAR-4; MOLT-4; SR; KM12; RXF 393; TK-10; SNB-75.
Experiment in all cases: NCI-60 cell line screen, 48 h

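These data come from cells grown in 96-well plates and exposed to compound for 48 hours at five concentrations. Abbreviation: GI50, concentration required for 50% inhibition of growth.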 Calls of active or inactive are those of the source. Rule as the data show it: active = GI50 up to about 1.1 µM and inactive = higher.

On to `COc1ccccc1/C=C(\C#N)C(=O)c1ccccc1`, for which the GI50 with HOP-92, in the test with SK-MEL-5, with UACC-257, in the test on LOX IMVI, in the test with SK-MEL-2 and with HCT-116 was > 100 µM (inactive) each time. The GI50 in the test on OVCAR-3, in the test with SW-620, in the test on HL-60, in the test with EKVX, in the test with OVCAR-4 and in the test on MOLT-4 was > 100 µM (inactive) throughout. Moreover, the GI50 in the test with SR and in the test on KM12 was > 100 µM (inactive) each time.

As for `C[C@]12Cc3conc3C(O)=C1CC[C@@H]1C2CC[C@@]2(C)C1CC[C@@H]2O` (stereo not given in full), the GI50 in the test with HOP-92 is 22.8 µM (inactive); in the test on SK-MEL-5, 10.5 µM (inactive); in the test on UACC-257, 21.3 µM (inactive); in the test on LOX IMVI it was 4.5 µM (inactive); with RXF 393 it was 17.4 µM (inactive); in the test with SK-MEL-2 it was 0.634 µM (active). For the same compound, the GI50 with OVCAR-3 is 6.22 µM (inactive); in the test on SW-620, 15.5 µM (inactive); with TK-10, 24.3 µM (inactive); in the test with HL-60, 2.55 µM (inactive); with SNB-75, 9.77 µM (inactive); in the test with EKVX, 17.5 µM (inactive). Moreover, the GI50 in the test on OVCAR-4 was 31.6 µM (inactive); in the test with MOLT-4 it was 6.68 µM (inactive); with KM12, 12 µM (inactive).

As for `Cc1nn(C)c(=S)n(C)c1=O`, the GI50 in the test with HOP-92 is 0.291 µM (active); in the test with UACC-257 it was 1.05 µM (active); in the test on LOX IMVI, 1.79 µM (inactive); in the test with RXF 393, 0.498 µM (active); in the test with SK-MEL-2, 0.733 µM (active); in the test on HCT-116, 0.416 µM (active). The GI50 is 4.19 µM (inactive) in the test with OVCAR-3; 1.79 µM (inactive) with SW-620; 4.69 µM (inactive) in the test on TK-10; 1.31 µM (inactive) in the test with HL-60; 0.329 µM (active) in the test on SNB-75; 4.83 µM (inactive) with EKVX. For the same compound, the results for the GI50 in the test on OVCAR-4 and in the test with MOLT-4 were 5.83 µM (inactive) and 1.29 µM (inactive), respectively.

`COc1ccc2c(c1OCC(=O)O)C(=O)C(CCC(=O)O)CC2` (stereo not given): the GI50 in the test on SK-MEL-5, in the test on UACC-257, in the test on LOX IMVI, with RXF 393, in the test with HCT-116 and with OVCAR-3 was > 100 µM (inactive) in each case. The GI50 in the test on SW-620 is > 100 µM (inactive); in the test with TK-10 it was > 10 µM (inactive); in the test with HL-60, > 100 µM (inactive); in the test on SNB-75, > 100 µM (inactive); with EKVX it was > 100 µM (inactive); in the test on OVCAR-4 it was > 100 µM (inactive). In the test on MOLT-4, the GI50 was > 100 µM (inactive).

For the compound `O=C(O)CCNS(=O)(=O)c1ccc2ccccc2c1`, the GI50 with HOP-92 was > 100 µM (inactive); in the test with SK-MEL-5 it was > 100 µM (inactive); with UACC-257, > 100 µM (inactive); in the test on LOX IMVI it was > 100 µM (inactive); in the test on RXF 393 it was > 10 µM (inactive); in the test on SK-MEL-2, > 100 µM (inactive). For the same compound, the GI50 with OVCAR-3, in the test with SW-620, with TK-10, in the test with HL-60, with SNB-75 and with EKVX was > 100 µM (inactive) each time. Besides, the GI50 in the test with OVCAR-4, in the test with MOLT-4 and in the test on KM12 was > 100 µM (inactive) each time.

On to `O=C1C(=O)N(C2C3CC4CC(C3)CC2C4)C(=O)C(=O)C1c1nc2ccccc2o1` (stereo not given), for which the GI50 was 61.1 µM (inactive) in the test on HOP-92; 26.1 µM (inactive) with UACC-257; > 100 µM (inactive) in the test on LOX IMVI; 70 µM (inactive) with RXF 393; > 100 µM (inactive) with SK-MEL-2; 37 µM (inactive) in the test with HCT-116. For the same compound, the GI50 in the test on OVCAR-3 was 25.1 µM (inactive); in the test with SW-620, 55 µM (inactive); in the test on TK-10, > 100 µM (inactive); with SNB-75 it was 33.1 µM (inactive); with EKVX, > 100 µM (inactive); in the test on OVCAR-4, > 100 µM (inactive). The GI50 in the test with KM12 was > 100 µM (inactive).

Regarding `O=C(O)CCC1(Br)CCCCC(Br)C1=O` (stereo not given), the GI50 in the test with HOP-92 was 32.7 µM (inactive); in the test on SK-MEL-5 it was > 100 µM (inactive); with UACC-257, > 100 µM (inactive); with RXF 393, 85.9 µM (inactive); with SK-MEL-2, 77.4 µM (inactive); in the test on HCT-116, > 100 µM (inactive). In addition, the GI50 was > 100 µM (inactive) in the test with OVCAR-3; > 100 µM (inactive) in the test with SW-620; > 100 µM (inactive) in the test on TK-10; > 100 µM (inactive) with HL-60; 35.9 µM (inactive) in the test on SNB-75; > 100 µM (inactive) in the test on EKVX. Besides, the results for the GI50 in the test with OVCAR-4, with MOLT-4 and in the test on KM12 were > 100 µM (inactive), > 100 µM (inactive) and > 10 µM (inactive), respectively.

As to `CC(=O)Nc1ccc(C(=O)N2N=C(C)/C(=C/c3ccccc3O)C2=O)cc1`, the GI50 with SK-MEL-5, in the test on UACC-257, in the test with LOX IMVI, in the test on SK-MEL-2, in the test with HCT-116 and in the test on OVCAR-3 was > 100 µM (inactive) throughout. Moreover, the GI50 in the test on SW-620, in the test with TK-10, in the test on HL-60, with SNB-75, in the test with EKVX and with OVCAR-4 was > 100 µM (inactive) throughout. Besides, the GI50 in the test on MOLT-4, with SR and in the test with KM12 was > 100 µM (inactive) in each case.

For `Cc1ccc(S(=O)(=O)c2ccc(N)cc2)cc1`, the GI50 in the test on SK-MEL-5, in the test with UACC-257, in the test on RXF 393, in the test with SK-MEL-2, in the test with HCT-116 and in the test with OVCAR-3 was > 100 µM (inactive) in each case. Also, the GI50 with SW-620, with TK-10, with HL-60, in the test with SNB-75, in the test with EKVX and in the test with OVCAR-4 was > 100 µM (inactive) each time. Moreover, the GI50 is > 100 µM (inactive) in the test with MOLT-4 and 47.6 µM (inactive) in the test on KM12.

Take `CC(C)(C)OC(=O)NCC(=O)OCc1ccccc1`: the GI50 in the test with HOP-92, with UACC-257, in the test with LOX IMVI, in the test with SK-MEL-2, with HCT-116 and in the test with OVCAR-3 was > 100 µM (inactive) each time. Also, the GI50 in the test with SW-620, with TK-10, in the test with HL-60, in the test on SNB-75, with MOLT-4 and in the test with KM12 was > 100 µM (inactive) each time.

(Values after ChEMBL document CHEMBL1201862, “PubChem BioAssay data set” (2004).)
